Values joined by “and” are separate entries in the source; they are usually repeats but may differ in a detail not shown here. Equal values may be shown once. Read-outs that look alike come from different tables or passages of the source.
Experiments:
[1] = Fluorescent AGEs formation in a BSA-fructose/glucose system; assay type: biochemical; details: for inhibition of fluorescent AGEs formation (BSA-抗糖化), single replicate: individual replicate; for inhibition of fluorescent AGEs formation (BSA-抗糖化), 平均 (mean): mean of 3 replicates
How it was run: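 BSA glycated in vitro with D-glucose and D-fructose while test samples, dissolved in DMSO:water (1:4), were present. Percent inhibition of fluorescent AGE formation calculated from fluorescence corrected for sample-only and BSA-free blanks; triplicate.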

COX-2 = target: T1, COX-2 (Homo sapiens, UniProt P35354); test: Anti-COX-2 assay (COX-2 Inhibitor Screening Kit); assay type: biochemical
T1 construct: purchased Beyotime S0168
T1 sequence (P35354 18-604): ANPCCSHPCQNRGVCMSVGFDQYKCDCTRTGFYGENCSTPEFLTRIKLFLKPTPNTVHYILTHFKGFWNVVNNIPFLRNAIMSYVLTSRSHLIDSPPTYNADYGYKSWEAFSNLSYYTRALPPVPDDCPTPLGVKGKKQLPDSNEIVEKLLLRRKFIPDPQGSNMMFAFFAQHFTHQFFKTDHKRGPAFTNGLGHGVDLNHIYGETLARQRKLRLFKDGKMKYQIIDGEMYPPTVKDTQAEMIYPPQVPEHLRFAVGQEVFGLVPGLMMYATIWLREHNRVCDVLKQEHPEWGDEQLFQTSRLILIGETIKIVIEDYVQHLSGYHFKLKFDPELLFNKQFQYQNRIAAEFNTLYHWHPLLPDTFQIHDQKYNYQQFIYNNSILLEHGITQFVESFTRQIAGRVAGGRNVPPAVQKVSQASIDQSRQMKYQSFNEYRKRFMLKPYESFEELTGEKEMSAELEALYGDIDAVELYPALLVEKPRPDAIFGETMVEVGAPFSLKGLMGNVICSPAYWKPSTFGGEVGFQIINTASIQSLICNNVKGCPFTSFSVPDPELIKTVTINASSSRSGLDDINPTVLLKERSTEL

[2] = Online UPLC-PDA-MS-ABTS·+ scavenging (postcolumn derivatisation); details: within DOF extract
How it was run: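 Extract components separated by UPLC, then mixed postcolumn with fresh ABTS·+ in a 15 m reaction coil at 37°C (0.2 ml/min). Scavengers appear as negative peaks from absorbance loss at 729 nm; PDA at 280 and 734 nm; QDa MS in negative ESI (100–800 m/z) for tentative identification.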

[3] = FRAP total antioxidant capacity; assay type: biochemical; details: lower part of sheet (compound series);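 also: colourimetric FRAP kit assay read as absorbance in 96-well plates, values as mM FeSO4 via standard curve, EC1 being sample concentration matching 1.0 mmol/L FeSO4, Trolox positive control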
DPPH· scavenging = assay type: biochemical; details: mean ± SD, n = 3
[4] = ABTS·+ decolourisation capacity; assay type: biochemical; details: for ABTS scavenging rate: replicate wells, listed as T9
How it was run: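 ABTS·+ working solution in 0.2 M phosphate buffer, pH 7.4, was adjusted to A729 0.8 ± 0.05, and 100 μl was mixed with 200 μl sample; absorbance was read at 729 nm after 10 min, in triplicate. Inhibition was taken relative to a phosphate-buffer control, and IC50 was obtained graphically from dose-inhibition curves.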

[5] = 15.625 µM, listed as T9, 15.625 µM
[6] = 31.25 µM, listed as T9, 31.25 µM

Compound: O=c1c(OC2OC(CO)C(O)C(O)C2OC2OC(CO)C(O)C(O)C2O)c(-c2ccc(O)c(O)c2)oc2cc(O)cc(O)c12 (centres unmarked) [compound 16, Quercetin-3-O-sophoroside]
- inhibition of fluorescent AGEs formation (BSA-抗糖化), single replicate [1, 5]: -5.89% and 1.09% and -2.67%
- inhibition of fluorescent AGEs formation (BSA-抗糖化), 平均 (mean) [1, 5]: -2.49%
- inhibition of fluorescent AGEs formation (BSA-抗糖化), single replicate [1, 6]: 4.38% and 4.16% and -1.45%
- inhibition of fluorescent AGEs formation (BSA-抗糖化), 平均 (mean) [1, 6]: 2.37%
- inhibition of fluorescent AGEs formation (BSA-抗糖化), single replicate ([1]; 62.5 µM, listed as T9, 62.5 µM): 13.91% and 12.77% and 15.77%
- inhibition of fluorescent AGEs formation (BSA-抗糖化), 平均 (mean) ([1]; 62.5 µM, listed as T9, 62.5 µM): 14.15%
- inhibition of fluorescent AGEs formation (BSA-抗糖化), single replicate ([1]; 125 µM, listed as T9, 125 µM): 29.89% and 32.42% and 28.07%
- inhibition of fluorescent AGEs formation (BSA-抗糖化), 平均 (mean) ([1]; 125 µM, listed as T9, 125 µM): 30.13%
- inhibition of fluorescent AGEs formation (BSA-抗糖化), single replicate ([1]; 250 µM, listed as T9, 250 µM): 44.67% and 46.80% and 48.36%
- inhibition of fluorescent AGEs formation (BSA-抗糖化), 平均 (mean) ([1]; 250 µM, listed as T9, 250 µM): 46.61%
- inhibition of fluorescent AGEs formation (BSA-抗糖化), single replicate ([1]; 500 µM, listed as T9, 500 µM): 63.53% and 64.37% and 63.12%
- inhibition of fluorescent AGEs formation (BSA-抗糖化), 平均 (mean) ([1]; 500 µM, listed as T9, 500 µM): 63.67%
- inhibition of fluorescent AGEs formation (BSA-抗糖化), single replicate ([1]; 1000 µM, listed as T9, 1000 µM): 79.44% and 79.91% and 79.18%
- inhibition of fluorescent AGEs formation (BSA-抗糖化), 平均 (mean) ([1]; 1000 µM, listed as T9, 1000 µM): 79.51%
- inhibition of fluorescent AGEs formation (BSA-抗糖化), single replicate ([1]; 2000 µM, listed as T9, 2000 µM): 88.85% and 89.28% and 89.06%
- inhibition of fluorescent AGEs formation (BSA-抗糖化), 平均 (mean) ([1]; 2000 µM, listed as T9, 2000 µM): 89.06%
- inhibition of fluorescent AGEs formation (BSA-抗糖化), single replicate ([1]; 4000 µM (series head 'T9 4000µM', 2-fold dilutions), listed as T9): 94.75% and 94.42% and 94.91%
- inhibition of fluorescent AGEs formation (BSA-抗糖化), 平均 (mean) ([1]; 4000 µM, listed as T9, 4000 µM): 94.69%
- IC50 ([1]; mean ± SD, n = 3, read-out: BSA-glycation IC50): 296 ± 8.5 µM
- COX-2 inhibition (in words) (COX-2): great COX-2 inhibition
- inhibition at 3.125 µM (COX-2; 3.125 μM, single replicates): 18.7%
- COX-2 inhibition (COX-2; 3.125 μM, single replicates, listed as T9, 3.125 µM): 24.64% and 15.29%
- inhibition at 6.25 µM (COX-2; 6.25 μM, single replicates): 29.8%
- COX-2 inhibition (COX-2; 6.25 μM, single replicates, listed as T9, 6.25 µM): 26.80% and 27.13%
- inhibition at 12.5 µM (COX-2; 12.5 μM, single replicates): 61.6%
- COX-2 inhibition (COX-2; 12.5 μM, single replicates, listed as T9, 12.5 µM): 66.25% and 69.30%
- inhibition at 25 µM (COX-2; 25 μM, single replicates): 73.7%
- COX-2 inhibition (COX-2; 25 μM, single replicates, listed as T9, 25 µM): 76.43% and 76.52%
- inhibition at 50 µM (COX-2; 50 μM, single replicates): 77.8%
- COX-2 inhibition (COX-2; 50 μM, single replicates, listed as T9, 50 µM): 79.58% and 76.60%
- inhibition at 100 µM (COX-2; 100 μM, single replicates): 79.3%
- COX-2 inhibition (COX-2; 100 μM, single replicates, listed as T9, 100 µM): 79.42% and 83.93%
- inhibition at 200 µM (COX-2; 200 μM, single replicates): 80.9%
- COX-2 inhibition (COX-2; 200 μM, single replicates, listed as T9, 200 µM): 81.85% and 81.79%
- IC50 (COX-2; mean ± SD, n = 3, nd, not detected, read-out: COX-2 IC50): 11 ± 0.7 µM
- IC50 (COX-2; supplement sheet COX, read-out: COX-2 IC50, single replicate): 11.7 µM and 10.4 µM and 10.9 µM
- online ABTS radical scavenging (size of negative peaks at 734 nm) [2]: strongest ABTS radical scavengers
- FRAP EC1 [3]: 949.6 ± 41.9 µM
- IC50 (DPPH· scavenging): 172 ± 76 µM
- ABTS scavenging rate ([4]; 0.1mM (second) series, concentration 1.5625 (unit not given)): 15.90% and 14.14% and 8.19%
- ABTS scavenging rate ([4]; 0.1mM (second) series, concentration 3.125 (unit not given)): 24.15% and 23.67% and 20.29%
- ABTS scavenging rate ([4]; 0.1mM (second) series, concentration 6.25 (unit not given)): 44.10% and 44.05% and 40.43%
- ABTS scavenging rate ([4]; 0.1mM (second) series, concentration 12.5 (unit not given)): 74.66% and 75.28% and 72.52%
- ABTS scavenging rate ([4]; 0.1mM (second) series, concentration 25 (unit not given)): 99.29% and 99.51% and 99.54%
- ABTS scavenging rate ([4]; 0.1mM (second) series, concentration 50 (unit not given)): 99.16% and 99.11% and 99.25%
- ABTS scavenging rate ([4]; 0.1mM (second) series, concentration 100 (unit not given)): 98.65% and 98.51% (2×)
- ABTS scavenging rate ([4]; 0.5mM series, concentration 7.8125 (unit not given)): 63.17% and 62.77% and 62.93%
- ABTS scavenging rate ([4]; 0.5mM series, concentration 15.625 (unit not given)): 91.66% and 90.68% and 90.61%
- ABTS scavenging rate ([4]; 0.5mM series, concentration 31.25 (unit not given)): 99.28% and 99.41% and 99.37%
- ABTS scavenging rate ([4]; 0.5mM series, concentration 62.5 (unit not given)): 98.95% and 98.76% and 98.72%
- ABTS scavenging rate ([4]; 0.5mM series, concentration 125 (unit not given)): 98.61% and 98.31% and 98.43%
- ABTS scavenging rate ([4]; 0.5mM series, concentration 500 (unit not given)): 98.97% and 98.88% and 98.79%
- IC50 ([4]; mean ± SD, n = 3): 6.63 ± 0.41 µM

— publication PMC10064984, “Anti-cyclooxygenase, anti-glycation, and anti-skin aging effect of Dendrobium officinale flowers’ aqueous extract and its phytochemical validation in aging” (Frontiers in Immunology, 2023)
